Reference: ChEMBL document CHEMBL3885881, “DrugMatrix”

Species: Rattus norvegicus
Format: toxicity, organism-based, Sprague-Dawley
Details: in vivo, sc, 24 h, route mini-PUMP - SUBCUTANEOUS, time 1 day, vehicle 100 % SALINE; for ABSOLUTE EOSINOPHIL / ABSOLUTE LYMPHOCYTE / ABSOLUTE MONOCYTE / ABSOLUTE SEGMENTED NEUTROPHIL / BASOPHIL / EOSINOPHIL / ERYTHROCYTE COUNT / HEMATOCRIT / HEMOGLOBIN / LEUKOCYTE COUNT / LYMPHOCYTE / MEAN CORPUSCULAR HEMOGLOBIN / MEAN CORPUSCULAR HEMOGLOBIN CONCENTRATION / MEAN CORPUSCULAR VOLUME / MONOCYTE / NEUTROPHIL / NUCLEATED RED BLOOD CELLS / PLATELET COUNT: tissue Blood; for ALANINE AMINOTRANSFERASE / ALBUMIN / ALKALINE PHOSPHATASE / ASPARTATE AMINOTRANSFERASE / BLOOD UREA NITROGEN / CARBON DIOXIDE / CHLORIDE / CHOLESTEROL / CREATININE / GLUCOSE / LACTATE DEHYDROGENASE / LIPASE / PHOSPHORUS / POTASSIUM / SODIUM / TOTAL BILIRUBIN / TOTAL PROTEIN / URIC ACID: tissue Plasma
[1] = 0 mg/kg, vehicle control, dose level Control

Description: DrugMatrix - Regimen: Single

With `NC[C@H](O)c1ccc(O)c(O)c1` [NOREPINEPHRINE] the “ABSOLUTE EOSINOPHIL” value [1] was 26.17 CELLS/uL, the “ABSOLUTE LYMPHOCYTE” value [1] was 10985.83 CELLS/uL and the “ABSOLUTE MONOCYTE” value [1] was 234.5 CELLS/uL. For the same compound, the “ABSOLUTE SEGMENTED NEUTROPHIL” value [1] was 1753.5 CELLS/uL, the BASOPHIL [1] was 0% and the EOSINOPHIL [1] was 0.17%. The “ERYTHROCYTE COUNT” value [1] was 5.64 x10E6/uL, the HEMATOCRIT [1] was 34.52% and the HEMOGLOBIN [1] was 12.68 G/DL. The “LEUKOCYTE COUNT” value [1] was 13 x10E3/uL, the LYMPHOCYTE [1] was 84.5% and the “MEAN CORPUSCULAR HEMOGLOBIN” value [1] was 22.5 pg. The “MEAN CORPUSCULAR HEMOGLOBIN CONCENTRATION” value [1] was 36.78 G/DL, the “MEAN CORPUSCULAR VOLUME” value [1] was 61.18 fL and the MONOCYTE [1] was 1.83%. The NEUTROPHIL [1] was 13.5%, the “NUCLEATED RED BLOOD CELLS” value [1] was 0.17 /100WBC and the “PLATELET COUNT” value [1] was 679.17 x10E3/uL. The “ALANINE AMINOTRANSFERASE” value [1] was 42.67 u/L, the ALBUMIN [1] was 3.77 G/DL and the “ALKALINE PHOSPHATASE” value [1] was 291.17 u/L. The “ASPARTATE AMINOTRANSFERASE” value [1] was 74.5 u/L, the “BLOOD UREA NITROGEN” value [1] was 15.33 mg/dL and the “CARBON DIOXIDE” value [1] was 30 mmol/L. For the same compound, the CHLORIDE [1] was 100.83 MEQ/L, the CHOLESTEROL [1] was 65.33 mg/dL and the CREATININE [1] was 0.15 mg/dL. The GLUCOSE [1] was 179.83 mg/dL, the “LACTATE DEHYDROGENASE” value [1] was 162.67 u/L and the LIPASE [1] was 8.5 u/L. For the same compound, the PHOSPHORUS [1] was 12.2 mg/dL, the POTASSIUM [1] was 5.73 MEQ/L and the SODIUM [1] was 144.7 MEQ/L. For the same compound, the “TOTAL BILIRUBIN” value [1] was 0.15 mg/dL, the “TOTAL PROTEIN” value [1] was 5.87 G/DL and the “URIC ACID” value [1] was 1.93 mg/dL. The “ABSOLUTE EOSINOPHIL” value (1.75 mg/kg, dose level High) was 128.33 CELLS/uL, the “ABSOLUTE LYMPHOCYTE” value (1.75 mg/kg, dose level High) was 11603.67 CELLS/uL and the “ABSOLUTE MONOCYTE” value (1.75 mg/kg, dose level High) was 444.67 CELLS/uL. For the same compound, the “ABSOLUTE SEGMENTED NEUTROPHIL” value (1.75 mg/kg, dose level High) was 3490 CELLS/uL, the BASOPHIL (1.75 mg/kg, dose level High) was 0% and the EOSINOPHIL (1.75 mg/kg, dose level High) was 1%. The “ERYTHROCYTE COUNT” value (1.75 mg/kg, dose level High) was 6.6 x10E6/uL, the HEMATOCRIT (1.75 mg/kg, dose level High) was 39.53% and the HEMOGLOBIN (1.75 mg/kg, dose level High) was 14.47 G/DL. The “LEUKOCYTE COUNT” value (1.75 mg/kg, dose level High) was 15.67 x10E3/uL, the LYMPHOCYTE (1.75 mg/kg, dose level High) was 74% and the “MEAN CORPUSCULAR HEMOGLOBIN” value (1.75 mg/kg, dose level High) was 21.97 pg. The “MEAN CORPUSCULAR HEMOGLOBIN CONCENTRATION” value (1.75 mg/kg, dose level High) was 36.6 G/DL, the “MEAN CORPUSCULAR VOLUME” value (1.75 mg/kg, dose level High) was 60.07 fL and the MONOCYTE (1.75 mg/kg, dose level High) was 3%. For the same compound, the NEUTROPHIL (1.75 mg/kg, dose level High) was 22%, the “NUCLEATED RED BLOOD CELLS” value (1.75 mg/kg, dose level High) was 0 /100WBC and the “PLATELET COUNT” value (1.75 mg/kg, dose level High) was 1126 x10E3/uL. The “ALANINE AMINOTRANSFERASE” value (1.75 mg/kg, dose level High) was 33 u/L, the ALBUMIN (1.75 mg/kg, dose level High) was 4.03 G/DL and the “ALKALINE PHOSPHATASE” value (1.75 mg/kg, dose level High) was 413.33 u/L. The “ASPARTATE AMINOTRANSFERASE” value (1.75 mg/kg, dose level High) was 77.33 u/L, the “BLOOD UREA NITROGEN” value (1.75 mg/kg, dose level High) was 10.33 mg/dL and the “CARBON DIOXIDE” value (1.75 mg/kg, dose level High) was 27.67 mmol/L. The CHLORIDE (1.75 mg/kg, dose level High) was 101 MEQ/L, the CHOLESTEROL (1.75 mg/kg, dose level High) was 102 mg/dL and the CREATININE (1.75 mg/kg, dose level High) was 0.12 mg/dL. For the same compound, the GLUCOSE (1.75 mg/kg, dose level High) was 268 mg/dL, the “LACTATE DEHYDROGENASE” value (1.75 mg/kg, dose level High) was 247.67 u/L and the LIPASE (1.75 mg/kg, dose level High) was 9 u/L. The PHOSPHORUS (1.75 mg/kg, dose level High) was 14.8 mg/dL, the POTASSIUM (1.75 mg/kg, dose level High) was 6.26 MEQ/L and the SODIUM (1.75 mg/kg, dose level High) was 146.7 MEQ/L. The “TOTAL BILIRUBIN” value (1.75 mg/kg, dose level High) was 0.13 mg/dL, the “TOTAL PROTEIN” value (1.75 mg/kg, dose level High) was 6.4 G/DL and the “URIC ACID” value (1.75 mg/kg, dose level High) was 3.1 mg/dL.
